In patent US20070154965A1, “Chlorotoxin-labeled nanoparticle compositions and methods for targeting primary brain tumors” (priority 2005, published 2007):

Test system: 9L cells
Test: Transwell migration (matrigel invasion) assay
Format: cell-based, rat
Conditions: 4 μg/ml free chlorotoxin, 24 hrs
Experimental: Transwell migration assay. The assay was performed by a method reported previously to assess the bioactivity of chlorotoxin. See Deshane et al., J. Biol. Chem. 2003, 278:4135-4144, expressly incorporated herein in its entirety. Prior to the experiment, matrigel invasion chamber inserts (BD Biosciences, Bedford, Mass.) of 8 μm pore size were rehydrated. The lower surfaces of the chamber inserts were immersed in 5 μg/ml solution of vitronectin for 8 hours. 9L cells were then plated at a density of 2.5×10^5 cells per chamber. Cells were treated with solutions of 4 μg/ml of chlorotoxin, and 10 μg Fe/ml of NPCs, respectively. The chambers were then incubated in a 37° C. humidified incubator maintained at 5% CO2 for 24 hrs. The cells on the upper inserts were scrubbed off, and the invaded cells were fixed and stained with Diff-Quik stain kit (IMEB INC., Chicago, Ill.). The filters were then detached from the inserts and mounted on glass slides using immersion oil and imaged on a Nikon E800 upright microscope. Relative inhibition of cell invasion was determined through reduction of migrating cells in presence of chlorotoxin and NPCs. Triplicates of each sample were prepared and cell counts were obtained from five random spots on each filter. The data was then averaged and presented as a relative number of invasive cells per treatment.

chlorotoxin
inhibition of cell invasion: approximately 88%
